This note sets out measurements from patent US9732094B2, “Arylquinazolines” (Merck Patent GmbH, priority 2013, dated 2017).

Where two headings read alike, the source gives them in different places. Where only a bound is given, the exact number is not on record here.

Series [1] concerns the target DNA-PK (Homo sapiens (Human), UniProt P78527). Briefly: DNA-PK assay (biochemical), flashplate 33P-ATP kinase assay. Summed up: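 Reactions ran in streptavidin-coated flashplates and were halted by 200 mM EDTA, with a further 30 min at room temperature before saline washing.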
Series [2] addresses DNA-PK phosphorylation at serine 2056 (Homo sapiens (Human), UniProt P78527). The series is described as follows: DNA-PK phosphorylation at serine 2056 (cellular), bleomycin-treated HCT116 cells, ELISA. The following applies: read-out: IC50 pDNA-PK. The format is cell-based. Put shortly:
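Chemiluminescent ELISA read-out; phospho-specific signal normalised to total DNA-PKcs. Cells (HCT116) exposed 6 h to test compound plus 10 μM bleomycin to induce double-strand breaks; DMSO control served as blank.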
In general terms: In an ELISA, binding on a coated surface is turned into a signal by an enzyme label.

Series [3] concerns the target Kv11.1 (hERG) (Homo sapiens (Human), UniProt Q12809). Briefly: Kv11.1 (hERG) ion channel activity (patch clamp assay), HEK293 cells transfected with hERG gene. (In general: hERG is a cardiac potassium channel; its block is linked to QT prolongation.)
The mark [4] stands for this setting: cellular DNA-PK phosphorylation at serine 2056, HCT116.
The mark [5] stands for this setting: Ki [Kv1.11 hERG], hERG patch clamp assay (cells without asterisk).
[6] abbreviates: read-out: Ki [Kv1.11 hERG], hERG patch clamp assay (cells without asterisk).
Where [7] appears, read: cellular, HCT116 cells, 10 μM bleomycin, six hours.
The mark [8] stands for this setting: read-out: Ki [Kv1.11 hERG], patch clamp, HEK293 transfected with hERG gene.
Setting [9] is: Ki [Kv1.11 hERG], patch clamp, HEK293 transfected with hERG gene.

Sequence of Kv11.1 (hERG) (Q12809 whole entry): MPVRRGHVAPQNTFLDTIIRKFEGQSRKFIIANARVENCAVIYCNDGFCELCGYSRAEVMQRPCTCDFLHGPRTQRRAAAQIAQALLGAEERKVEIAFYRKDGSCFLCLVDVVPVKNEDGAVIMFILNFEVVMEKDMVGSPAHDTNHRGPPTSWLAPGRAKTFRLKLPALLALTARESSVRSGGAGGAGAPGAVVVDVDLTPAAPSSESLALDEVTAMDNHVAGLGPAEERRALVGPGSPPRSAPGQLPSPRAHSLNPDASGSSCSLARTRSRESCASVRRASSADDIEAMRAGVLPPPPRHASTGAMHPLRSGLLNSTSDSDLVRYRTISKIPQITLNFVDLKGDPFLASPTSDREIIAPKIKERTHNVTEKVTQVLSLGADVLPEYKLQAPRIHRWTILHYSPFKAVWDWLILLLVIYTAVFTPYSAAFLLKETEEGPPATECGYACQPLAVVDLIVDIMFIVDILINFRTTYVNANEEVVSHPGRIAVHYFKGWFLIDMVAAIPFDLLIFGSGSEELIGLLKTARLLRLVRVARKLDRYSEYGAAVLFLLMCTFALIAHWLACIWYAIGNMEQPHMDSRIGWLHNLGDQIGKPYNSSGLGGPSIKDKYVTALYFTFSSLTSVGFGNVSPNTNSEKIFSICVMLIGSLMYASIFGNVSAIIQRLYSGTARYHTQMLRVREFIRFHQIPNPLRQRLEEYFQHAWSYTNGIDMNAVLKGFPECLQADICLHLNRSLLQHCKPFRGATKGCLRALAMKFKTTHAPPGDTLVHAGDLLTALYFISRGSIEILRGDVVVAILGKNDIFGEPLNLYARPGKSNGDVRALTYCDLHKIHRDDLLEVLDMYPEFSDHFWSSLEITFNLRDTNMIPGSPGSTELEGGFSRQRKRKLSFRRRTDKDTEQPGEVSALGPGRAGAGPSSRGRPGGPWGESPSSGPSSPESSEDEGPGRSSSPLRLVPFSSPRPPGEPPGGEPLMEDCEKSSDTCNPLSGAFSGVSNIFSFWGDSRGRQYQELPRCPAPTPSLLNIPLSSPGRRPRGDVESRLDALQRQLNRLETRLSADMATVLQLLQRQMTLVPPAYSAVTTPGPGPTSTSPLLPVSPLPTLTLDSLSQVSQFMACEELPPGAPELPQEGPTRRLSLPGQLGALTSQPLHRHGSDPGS

For orientation: IC50 means the concentration that gives 50% inhibition. As usually defined, the Ki is a dissociation constant, usually derived from enzyme kinetics or from competition with a known ligand. On to `OC(c1cc(-c2ncnc3cc(N4CCOCC4)ccc23)c(F)cc1F)c1nccn2cccc12` (stereo not drawn) [Example 358, [2,4-Difluoro-5-(7-morpholin-4-yl-quinazolin-4-yl)-phenyl]pyrrolo[1,2-a]-pyrazin-1-ylmethanol], for which the IC50 in series [1] (biochemical DNA-PK assay) was under 3 nM; in series [2] (setting [4]), under 0.5 µM. The Ki in series [3] (setting [5]) was in the range of 10 to 15 µM.
As for `OC(c1ccc(F)c(-c2ncnc3cc(N4CCOCC4)ccc23)c1)c1nccn2cnnc12` (stereo not drawn) [Example 351, [4-Fluoro-3-(7-morpholin-4-yl-quinazolin-4-yl)-phenyl]-[1,2,4]-triazolo[4,3-a]-pyrazin-8-ylmethanol], the IC50 fell in the range of 7 to 30 nM in series [1] (biochemical DNA-PK assay) and 10 to 30 µM in series [2] (setting [4]). The Ki in series [3] (setting [6]) is over 25 µM.
Take `COc1cncnc1C(O)c1cc(-c2ncnc3cc(N4CCOCC4)ccc23)ccc1Cl` (stereo not drawn) [Example 408, [2-Chloro-5-(7-morpholin-4-yl-quinazolin-4-yl)-phenyl]-(5-methoxy-pyrimidin-4-yl)-methanol]: the half-inhibitory concentration (IC50) in series [1] (biochemical DNA-PK assay) lay within 3 to 7 nM; in series [2] (setting [4]), 0.5 to 5 µM. Besides, the Ki in series [3] (setting [5]) is 10 to 15 µM.
With `CN(C)c1ccc(C(O)c2ccc(F)c(-c3ncnc4cc(N5CCOCC5)ccc34)c2)nn1` (stereo not drawn) [Example 68, (6-Dimethylamino-pyridazin-3-yl)-[4-fluoro-3-(7-morpholin-4-yl-quinazolin-4-yl)phenyl]-methanol], the IC50 in series [1] (enzymatic, 5 μM ATP) lay within 3 to 7 nM; in series [2] (setting [7]), 5 to 10 µM. Besides, the Ki in series [3] (setting [8]) is over 25 µM.
Turning to `Cn1c(C(O)c2ccc(F)c(-c3ncnc4cc(N5CCOCC5)ccc34)c2)nccc1=O` (stereo not drawn) [Example 360, 2-{[4-Fluoro-3-(7-morpholin-4-yl-quinazolin-4-yl)-phenyl]hydroxy-methyl}-3-methyl-3H-pyrimidin-4-one], the IC50 lay in the range of 3 to 7 nM in series [1] (biochemical DNA-PK assay) and 0.5 to 5 µM in series [2] (setting [4]). The Ki in series [3] (setting [6]) is over 25 µM.
In the case of `Cc1cnc(C(O)c2cc(-c3ncnc4cc(N5CCOCC5)ccc34)c(F)cc2F)c(C)n1` (stereo not drawn) [Example 355, [2,4-Difluoro-5-(7-morpholin-4-yl-quinazolin-4-yl)-phenyl]-(3,5-dimethyl-pyrazin-2-yl)methanol], the values for the IC50 in series [1] (biochemical DNA-PK assay) and in series [2] (setting [4]) were 3 to 7 nM and 0.5 to 5 µM, respectively. In series [3] (setting [5]), this compound registered a Ki of 15 to 25 µM.
Turning to `CC(C#N)Oc1ccc(C(O)c2cc(-c3ncnc4cc(N5CCOCC5)ccc34)c(F)cc2Cl)nn1` (single isomer, unassigned) [Example 102, 2-(6-{[2-Chloro-4-fluoro-5-(7-morpholin-4-yl-quinazolin-4-yl)-phenyl)hydroxy-methyl}pyridazin-3-yloxy)propionitrile], the IC50 in series [1] (enzymatic, 5 μM ATP) was under 3 nM; in series [2] (setting [7]) it was under 0.5 µM. Also, the Ki in series [3] (setting [9]) was in the range of 15 to 25 µM.
On to `OC(c1ccc(F)c(-c2ncnc3cc(N4CCOCC4)ccc23)c1)c1cccnn1` (stereo not drawn) [Example 65, [4-Fluoro-3-(7-morpholin-4-yl-quinazolin-4-yl)phenyl]-pyridazin-3-ylmethanol], for which the IC50 in series [1] (enzymatic, 5 μM ATP) was in the range of 7 to 30 nM; in series [2] (setting [7]) it was 0.5 to 5 µM. For the same compound, in series [3] (setting [8]), the Ki is over 25 µM.
Regarding `CCn1cc(C(O)c2cc(-c3ncnc4cc(N5CCOCC5)ccc34)c(F)cc2Cl)cn1` (stereo not drawn) [Example 202, [2-Chloro-4-fluoro-5-(7-morpholin-4-ylquinazolin-4-yl)-phenyl]-(1-ethyl-1H-pyrazol-4-yl)-methanol], the IC50 in series [1] (Table 5) fell in the range of 7 to 30 nM; in series [2] (Table 5, HCT116 cells), 0.5 to 5 µM. For the same compound, the Ki in series [3] (Ki [Kv1.11 hERG], Table 5) was in the range of 15 to 25 µM.
For `COc1nccnc1C(O)c1ccc(F)c(-c2ncnc3cc(N4CCOCC4)ccc23)c1` (stereo not drawn) [Example 15, [4-Fluoro-3-(7-morpholin-4-yl-quinazolin-4-yl)phenyl]-(3-methoxy-pyrazin-2-yl)methanol], the concentration for half-maximal inhibition (IC50) is under 3 nM in series [1] (enzymatic, 5 μM ATP) and under 0.5 µM in series [2] (setting [7]). In addition, the Ki in series [3] (setting [9]) was in the range of 15 to 25 µM.
For `COC(=O)COc1ccc(C(O)c2cc(-c3ncnc4cc(N5CCOCC5)ccc34)c(F)cc2Cl)nn1` (stereo not drawn) [Example 114, (6-{[2-Chloro-4-fluoro-5-(7-morpholin-4-yl-quinazolin-4-yl)-phenyl]hydroxy-methyl}pyridazin-3-yl-oxy)acetic acid methyl ester], the IC50 lay in the range of 3 to 7 nM in series [1] (enzymatic, 5 μM ATP) and 10 to 30 µM in series [2] (setting [7]). Further, in series [3] (setting [8]), the Ki was over 25 µM.
Regarding `OC(c1ccc(F)c(-c2ncnc3cc(N4CCOCC4)ccc23)c1)c1ncnc2ccoc12` (stereo not drawn) [Example 442, [4-Fluoro-3-(7-morpholin-4-yl-quinazolin-4-yl)-phenyl]furo[3,2-d}-pyrimidin-4-yl-methanol], the figures for the IC50 in series [1] (biochemical DNA-PK assay) and in series [2] (setting [4]) were under 3 nM and under 0.5 µM, respectively. Also, in series [3] (setting [6]), the Ki was over 25 µM.
As for `Cn1nc(C(O)c2cc(-c3ncnc4cc(N5CCOCC5)ccc34)c(F)cc2Cl)ccc1=O` (stereo not drawn) [Example 59, 6-{[2-Chloro-4-fluoro-5-(7-morpholin-4-yl-quinazolin-4-yl)phenyl]-hydroxymethyl}-2-methyl-2H-pyridazin-3-one], the IC50 in series [1] (enzymatic, 5 μM ATP) is under 3 nM; in series [2] (setting [7]), 0.5 to 5 µM. The same compound gave a Ki in series [3] (setting [9]) of 15 to 25 µM.
The corresponding values for `OC(c1ccc2nccn2n1)c1cc(-c2ncnc3cc(N4CCOCC4)ccc23)c(F)cc1Cl` (stereo not drawn) [Example 56, [2-Chloro-4-fluoro-5-(7-morpholin-4-yl-quinazolin-4-yl)phenyl]-imidazo[1,2-b]pyridazin-6-ylmethanol] are 3 to 7 nM, 0.5 to 5 µM and 10 to 15 µM.
`C#Cc1nc(-c2cc(C(O)c3nccs3)ccc2F)c2ccc(N3CCOCC3)cc2n1` (stereo not drawn) [Example 208, [3-(2-Ethynyl-7-morpholinylquinazolin-4-yl)-4-fluorophenyl]thiazol-2-ylmethanol]: the IC50 in series [1] (enzymatic, 5 μM ATP) lay in the range of 3 to 7 nM; in series [2] (setting [7]), 0.5 to 5 µM. Further, in series [3] (setting [8]), the Ki was under 10 µM.
As for `OC(c1ccc(F)c(-c2ncnc3cc(N4CCOCC4)ccc23)c1)c1ncnc2c1CCNC2` (stereo not drawn) [Example 388, [4-Fluoro-3-(7-morpholin-4-yl-quinazolin-4-yl)-phenyl]-(5,6,7,8-tetrahydropyrido-[3,4-d}pyrimidin-4-yl)-methanol], the IC50 lay in the range of 7 to 30 nM in series [1] (biochemical DNA-PK assay) and 0.5 to 5 µM in series [2] (setting [4]). Besides, the Ki in series [3] (setting [5]) lay within 10 to 15 µM.
Take `OC(c1ccc(F)c(-c2ncnc3cc(N4CCOCC4)ccc23)c1)c1ncnc2occc12` (stereo not drawn) [Example 434, [4-Fluoro-3-(7-morpholin-4-yl-quinazolin-4-yl)-phenyl]furo[2,3-d}-pyrimidin-4-yl-methanol]: the IC50 in series [1] (biochemical DNA-PK assay) is under 3 nM; in series [2] (setting [4]) it was under 0.5 µM. For the same compound, the inhibition constant (Ki) in series [3] (setting [6]) is over 25 µM.
For `COc1nccnc1C(C(N)=O)c1cc(-c2ncnc3cc(N4CCOCC4)ccc23)ccc1Cl` (stereo not drawn) [Example 304, 2-[2-Chloro-5-(7-morpholin-4-yl-quinazolin-4-yl)-phenyl]-2-(3-methoxy-pyrazin-2-yl)acetamide], the results for the IC50 in series [1] (biochemical DNA-PK assay) and in series [2] (setting [4]) were 7 to 30 nM and 5 to 10 µM, respectively. Besides, the Ki in series [3] (setting [6]) was over 25 µM.
With `OC(c1ccc(F)c(-c2ncnc3cc(N4CCOCC4)ccc23)c1)c1nccnc1OC(F)F` (stereo not drawn) [Example 464, (3-Difluoromethoxy-pyrazin-2-yl)-[4-fluoro-3-(7-morpholin-4-yl-quinazolin-4-yl)-phenyl]methanol], the IC50 in series [1] (biochemical DNA-PK assay) fell in the range of 3 to 7 nM; in series [2] (setting [4]) it was 0.5 to 5 µM. Moreover, the inhibitory constant (Ki) in series [3] (setting [5]) lay within 15 to 25 µM.
Regarding `O=c1[nH]nc(C(O)c2ccc(F)c(-c3ncnc4cc(N5CCOCC5)ccc34)c2)c2sccc12` (stereo not drawn) [Example 337, 7-[[4-Fluoro-3-(7-morpholino-quinazolin-4-yl)-phenyl]hydroxy-methyl]-5H-thieno-[2,3-d}pyridazin-4-one], the results for the IC50 in series [1] (biochemical DNA-PK assay) and in series [2] (setting [4]) were under 3 nM and 0.5 to 5 µM, respectively. The same compound had a Ki in series [3] (setting [5]) of 15 to 25 µM.
Take `OC(c1cn2ccnc2cn1)c1cc(-c2ncnc3cc(N4CCOCC4)ccc23)c(F)cc1F` (stereo not drawn) [Example 223, [2,4-Difluoro-5-(7-morpholin-4-yl-quinazolin-4-yl)-phenyl]imidazo-[1,2-a]pyrazin-6-yl-methanol]: the IC50 in series [1] (Table 7) lay in the range of 7 to 30 nM; in series [2] (Table 7, HCT116 cells) it was 0.5 to 5 µM. Besides, the Ki in series [3] (read-out: Ki [Kv1.11 hERG], Table 7) was over 25 µM.
With `Cc1nccnc1[C@H](O)c1cc(-c2ncnc3cc(N4CCOCC4)ccc23)c(F)cc1F` [Example 84, [2,4-Difluoro-5-(7-morpholin-4-yl-quinazolin-4-yl)-phenyl]-(3-methyl-pyrazin-2-yl)methanol], the IC50 is 3 to 7 nM in series [1] (enzymatic, 5 μM ATP) and under 0.5 µM in series [2] (setting [7]). In series [3] (human, HEK293 cells stably transfected with the hERG gene, Ki [Kv1.11 hERG], patch clamp, HEK293 transfected with hERG gene), this compound showed an inhibition constant (Ki) of 15 to 25 µM.
On to `OCc1csc(C(O)c2cc(-c3ncnc4cc(N5CCOCC5)ccc34)c(F)cc2Cl)n1` (stereo not drawn) [Example 142, [2-Chloro-4-fluoro-5-(7-morpholin-4-yl-quinazolin-4-yl)-phenyl]-(4-hydroxymethyl-thiazol-2-yl)-methanol], for which the IC50 in series [1] (Table 5) is under 3 nM; in series [2] (Table 5, HCT116 cells) it was 0.5 to 5 µM. In addition, the Ki in series [3] (read-out: Ki [Kv1.11 hERG], Table 5) was under 10 µM.
With `OC(c1cc(-c2ncnc3cc(N4CCOCC4)ccc23)c(F)cc1Cl)c1nccn2ccnc12` (stereo not drawn) [Example 397, [2-Chloro-4-fluoro-5-(7-morpholin-4-yl-quinazolin-4-yl)-phenyl]imidazo-[1,2-a]pyrazin-8-yl-methanol], the IC50 in series [1] (biochemical DNA-PK assay) was 3 to 7 nM; in series [2] (setting [4]), under 0.5 µM. The Ki in series [3] (setting [6]) was over 25 µM.
